Measurements from ChEMBL document CHEMBL1201862, “PubChem BioAssay data set” (2004).
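1) Cells in 96-well plates. 2) Compound, 48 h, 5 concentrations. 3) Linear interpolation between surrounding doses. 4) Unreached endpoint = highest concentration. GI50: concentration for 50% inhibition of growth.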 Calls of active or inactive are those of the source. Cut-off read from the data, not from the text of the source: active = GI50 up to about 1.1 µM and inactive = higher.

How the values were obtained:
Assay in all cases: NCI-60 cell line screen, 48 h
EKVX = test system: EKVX
HCT-116 = test system: HCT-116
HCT-15 = test system: HCT-15
HOP-62 = test system: HOP-62
HOP-92 = test system: HOP-92
HT-29 = test system: HT-29
LOX IMVI = test system: LOX IMVI
MOLT-4 = test system: MOLT-4
Malme-3M = test system: Malme-3M
NCI-H23 = test system: NCI-H23
NCI-H522 = test system: NCI-H522
RXF 393 = test system: RXF 393
SF-268 = test system: SF-268
SF-295 = test system: SF-295
SN12C = test system: SN12C
SNB-75 = test system: SNB-75
SW-620 = test system: SW-620
TK-10 = test system: TK-10
U-251 = test system: U-251
SF-539 = test system: SF-539

Row | SMILES | GI50 (EKVX) | GI50 (HCT-116) | GI50 (HCT-15) [µM] | GI50 (HOP-62) | GI50 (HOP-92) | GI50 (HT-29) | GI50 (LOX IMVI) | GI50 (MOLT-4) | GI50 (Malme-3M) | GI50 (NCI-H23) | GI50 (NCI-H522) | GI50 (RXF 393) | GI50 (SF-268) | GI50 (SF-295) | GI50 (SN12C) | GI50 (SNB-75) | GI50 (SW-620) | GI50 (TK-10) | GI50 (U-251) | GI50 (SF-539)
1 | CCC1c2[nH]c3ccccc3c2C[C@H]2C(=O)NC(COC(C)(C)C)C(=O)N12 (stereo partly specified) | 45.2 µM (inactive) | 41.6 µM (inactive) | 48 | 76.6 µM (inactive) | 21.2 µM (inactive) | 38.2 µM (inactive) | 37.3 µM (inactive) | 31.4 µM (inactive) | 21.7 µM (inactive) | 32.9 µM (inactive) | 38.5 µM (inactive) | 55.5 µM (inactive) | 67.3 µM (inactive) | 19.4 µM (inactive) | 45.5 µM (inactive) | 19.8 µM (inactive) | 69 µM (inactive) | 27.1 µM (inactive) | 40.7 µM (inactive) | –
2 | CC(C)C(=O)[C@@]1(C)SC[C@H]2CCN=C21 | > 100 µM (inactive) | > 100 µM (inactive) | > 100 | – | 16.9 µM (inactive) | > 100 µM (inactive) | > 100 µM (inactive) | 42.9 µM (inactive) | 46.7 µM (inactive) | > 100 µM (inactive) | 52 µM (inactive) | 3.52 µM (inactive) | – | > 100 µM (inactive) | > 100 µM (inactive) | – | > 100 µM (inactive) | > 100 µM (inactive) | – | > 100 µM (inactive)
3 | COc1ccc2c(c1)C(=O)c1ccccc1C2 | 39.6 µM (inactive) | 36 µM (inactive) | 60.7 | 50.6 µM (inactive) | 64 µM (inactive) | 58.6 µM (inactive) | 49.9 µM (inactive) | 28.6 µM (inactive) | – | 96.4 µM (inactive) | 47.4 µM (inactive) | 13.5 µM (inactive) | 70.5 µM (inactive) | 36.5 µM (inactive) | > 100 µM (inactive) | 26.5 µM (inactive) | 71.4 µM (inactive) | 48.1 µM (inactive) | 45.2 µM (inactive) | 61.1 µM (inactive)
4 | CCOC(=O)c1cc(-c2ccc(OC)cc2)c([N+](=O)[O-])[nH]1 | > 10 µM (inactive) | > 10 µM (inactive) | > 10 | > 10 µM (inactive) | > 10 µM (inactive) | > 10 µM (inactive) | – | > 10 µM (inactive) | > 10 µM (inactive) | > 10 µM (inactive) | 9.82 µM (inactive) | > 10 µM (inactive) | > 10 µM (inactive) | > 10 µM (inactive) | > 10 µM (inactive) | > 10 µM (inactive) | > 10 µM (inactive) | > 10 µM (inactive) | > 10 µM (inactive) | > 10 µM (inactive)
5 | C#CC1(O)c2ccccc2C(=O)c2ccccc21 | > 100 µM (inactive) | > 100 µM (inactive) | – | > 100 µM (inactive) | 21.6 µM (inactive) | > 100 µM (inactive) | > 100 µM (inactive) | > 100 µM (inactive) | > 100 µM (inactive) | > 100 µM (inactive) | > 100 µM (inactive) | > 100 µM (inactive) | > 100 µM (inactive) | > 100 µM (inactive) | > 100 µM (inactive) | – | > 100 µM (inactive) | > 100 µM (inactive) | > 100 µM (inactive) | > 100 µM (inactive)
6 | O=c1[nH]ncc2[nH]c3c4ccccc4ccc3c12 | 10.8 µM (inactive) | 42.2 µM (inactive) | 12.4 | 40.6 µM (inactive) | 14 µM (inactive) | 39 µM (inactive) | 25.4 µM (inactive) | 35.6 µM (inactive) | 19.6 µM (inactive) | – | 19 µM (inactive) | 46.2 µM (inactive) | 37.2 µM (inactive) | 22.6 µM (inactive) | – | – | 41.3 µM (inactive) | 28.6 µM (inactive) | 24.8 µM (inactive) | 50.1 µM (inactive)
7 | CC1(C)C2CCC1(C)C(NC(=O)COCCOCC(N)=O)C2 (stereo unspecified) | > 100 µM (inactive) | > 100 µM (inactive) | – | > 100 µM (inactive) | > 100 µM (inactive) | > 100 µM (inactive) | – | > 100 µM (inactive) | > 100 µM (inactive) | > 100 µM (inactive) | > 100 µM (inactive) | 63.7 µM (inactive) | > 100 µM (inactive) | > 100 µM (inactive) | > 100 µM (inactive) | > 100 µM (inactive) | > 100 µM (inactive) | > 100 µM (inactive) | > 100 µM (inactive) | > 100 µM (inactive)
8 | Cn1cc(-c2ccc(CCOC3CCCCO3)cc2)c2c(C#N)cccc21 (stereo unspecified) | 35.6 µM (inactive) | 43.3 µM (inactive) | 16.6 | > 100 µM (inactive) | > 100 µM (inactive) | 17 µM (inactive) | 41.9 µM (inactive) | 16.1 µM (inactive) | 83 µM (inactive) | 48.3 µM (inactive) | > 100 µM (inactive) | 45.3 µM (inactive) | > 100 µM (inactive) | 34.7 µM (inactive) | > 100 µM (inactive) | – | 28.5 µM (inactive) | 48.3 µM (inactive) | 28.6 µM (inactive) | 55 µM (inactive)
9 | CSc1nc(-c2ccccc2)c2c(n1)-c1ccccc1CC2 | > 100 µM (inactive) | > 100 µM (inactive) | – | > 100 µM (inactive) | > 100 µM (inactive) | 52 µM (inactive) | > 100 µM (inactive) | > 100 µM (inactive) | > 100 µM (inactive) | > 100 µM (inactive) | > 100 µM (inactive) | 34.4 µM (inactive) | > 100 µM (inactive) | > 100 µM (inactive) | > 100 µM (inactive) | > 100 µM (inactive) | > 100 µM (inactive) | > 100 µM (inactive) | > 100 µM (inactive) | –
10 | COc1cccc2c(NNc3ccccc3)c3ccc([N+](=O)[O-])cc3nc12 | 78.2 µM (inactive) | 22.8 µM (inactive) | 33 | 60.4 µM (inactive) | 26.4 µM (inactive) | 23.6 µM (inactive) | 13.6 µM (inactive) | 1.03 µM (active) | 54.3 µM (inactive) | 20.5 µM (inactive) | 24.7 µM (inactive) | 48.9 µM (inactive) | 19.6 µM (inactive) | 27.5 µM (inactive) | 47.1 µM (inactive) | – | 24.9 µM (inactive) | 21.3 µM (inactive) | 21.2 µM (inactive) | 36.4 µM (inactive)
11 | CCOC(=O)c1sc2nc(SC)nc(Nc3ccc(OC)c(OC)c3)c2c1N | 23.3 µM (inactive) | 7.05 µM (inactive) | > 100 | 6.04 µM (inactive) | 9.89 µM (inactive) | 78 µM (inactive) | > 100 µM (inactive) | – | 23.2 µM (inactive) | 3.52 µM (inactive) | 5.79 µM (inactive) | 3.33 µM (inactive) | 14.3 µM (inactive) | 6.9 µM (inactive) | 60.3 µM (inactive) | – | 7 µM (inactive) | 6.73 µM (inactive) | 3.03 µM (inactive) | 1.58 µM (inactive)
12 | O=C(Sc1sc(=S)sc1SC(=O)c1ccccc1)c1ccccc1 | 53.8 µM (inactive) | 71.1 µM (inactive) | > 100 | 25.4 µM (inactive) | 50.6 µM (inactive) | 36.6 µM (inactive) | – | > 100 µM (inactive) | 78.3 µM (inactive) | > 100 µM (inactive) | > 100 µM (inactive) | > 100 µM (inactive) | 62.1 µM (inactive) | 33.7 µM (inactive) | 93.5 µM (inactive) | 30.3 µM (inactive) | > 100 µM (inactive) | > 100 µM (inactive) | 28.8 µM (inactive) | 46.2 µM (inactive)
13 | COc1cc(/C=C/C(=O)OC2C(O)C3CC(OC(=O)c4cc(OC)c(OC)c(OC)c4)CC2N3C)cc(OC)c1OC (stereo unspecified) | > 50 µM (inactive) | 20.7 µM (inactive) | 28.1 | 26.4 µM (inactive) | 9.77 µM (inactive) | 14.2 µM (inactive) | 15.3 µM (inactive) | 46 µM (inactive) | – | > 50 µM (inactive) | 19.5 µM (inactive) | 15.9 µM (inactive) | > 50 µM (inactive) | 23.4 µM (inactive) | 9.89 µM (inactive) | 8.73 µM (inactive) | 16 µM (inactive) | > 50 µM (inactive) | 40.5 µM (inactive) | 21.4 µM (inactive)
14 | CC(C)NC(=O)OCc1c2c(n(C)c1COC(=O)NC(C)C)-c1cc(Cl)c(Cl)cc1CC2 | 33.3 µM (inactive) | 24.8 µM (inactive) | 23.8 | 54.5 µM (inactive) | 19.5 µM (inactive) | 31 µM (inactive) | 38.3 µM (inactive) | 18.7 µM (inactive) | 49.3 µM (inactive) | 22.1 µM (inactive) | – | 21.7 µM (inactive) | 69.2 µM (inactive) | 46.5 µM (inactive) | 43 µM (inactive) | 29.4 µM (inactive) | 45.7 µM (inactive) | 25.2 µM (inactive) | 18.2 µM (inactive) | 50.2 µM (inactive)
15 | O=S(=O)(O)c1ccc(/N=N\c2c(O)ccc3cc(Br)ccc23)cc1 | > 100 µM (inactive) | > 100 µM (inactive) | > 100 | > 100 µM (inactive) | > 100 µM (inactive) | > 100 µM (inactive) | > 100 µM (inactive) | > 100 µM (inactive) | > 100 µM (inactive) | > 100 µM (inactive) | > 100 µM (inactive) | > 100 µM (inactive) | > 100 µM (inactive) | > 100 µM (inactive) | > 100 µM (inactive) | > 100 µM (inactive) | > 100 µM (inactive) | > 100 µM (inactive) | > 100 µM (inactive) | –
